Laboratory results taken from patent US20220040180A1, “KITS AND METHODS FOR TREATING CANCERS” (Spectrum Pharmaceuticals, Inc., priority 2018, published 2022).
Each block holds one compound with its values, some of them ahead of it.

Assays:
Assay type in all cases: physicochemical
[1] = Dynamic vapor sorption (DVS) hygroscopicity
Experimental: Dynamic Vapor Sorption (DVS) analysis was conducted on the DVS advantage (Surface measurement system, United Kingdom) analyzer at 25° C. and relative humidity of 0-90%.
10 mg of sample was placed in the wire mesh steam sorption balance pan and attached to the DVS-advantage dynamic vapor adsorption balance by the Surface Measurement Systems. […] After the completion of the sorption cycle, the sample was dried using the same procedure, during which the relative humidity was returned to a relative humidity […] all the time. The change in weight during the sorption/desorption cycle (repetition of 3 times) was recorded to determine the hygroscopicity of the sample.

[2] = Behaviour under long-term, accelerated and harsh storage conditions (moisture absorption, stability of form)
[3] = Test Example 2: comparative storage stability of hydrochloride salt forms, purity by HPLC
Experimental: High performance liquid chromatography (HPLC) was conducted on the Agilent 1100/1200 series HPLC Systems (Agilent, USA) analyzer for the purpose of purity and content analysis including stability test and the like. The analysis conditions of the HPLC are as follows.
To compare the stability of amorphous hydrochloride salt form and crystalline hydrochloride salt polymorphs, each of samples of the polymorphs and amorphous form of the hydrochloride salt of the compound of chemical formula (1) prepared in Examples 4 to 6 was left for 4 weeks under long term conditions (e.g., temperature of 25±2° C. and relative humidity of 60±5%) and accelerated conditions (e.g., temperature of 40° C. and relative humidity of 75%). Each sample was analyzed by high performance liquid chromatography (HPLC) according to the purity measurement conditions of the compound of chemical formula (1).

[4] = Test Example 1: comparative solubility of amorphous and crystalline hydrochloride salt forms (HPLC); conditions: 25° C., loading of 1.0 mg/mL; for Solubility, Water: LOD 0.1 μg/mL
Experimental: To compare the solubility of amorphous hydrochloride salt form and crystalline hydrochloride salt polymorphs, each of the polymorphs and amorphous form of the hydrochloride salt of the compound of chemical formula (1) prepared in Examples 4 to 6 was used to prepare samples under the following conditions according to non-ionized water and acidity (pH). Thereafter, each solution was analyzed by high performance liquid chromatography (HPLC) according to the measurement conditions of the content of the compound of chemical formula (1) to measure the dissolved amount (LOD: 0.1 μg/mL) based on the compound of chemical formula (1).
Specifically, 5 mg of each polymorph was added to 5 ml of water and mixed using a Voltamixer at 20-25° C. Thereafter, the filtrate obtained by filtrating using GH Polypro membrane Acrodisc, PALL (pore size 0.2 μm) was diluted with a dilution solvent for high performance liquid chromatography (HPLC) at a ratio of 1/100, to obtain the samples.

[5] = Solubility in water of the compound of chemical formula (1); conditions: amorphous free base
[6] = relative humidity range of 10-90%, 25° C.
[7] = 25 ± 2° C., 60 ± 5% RH, listed as HCl cryst. hydrate
[8] = 40 ± 2° C., 75 ± 5% RH, listed as HCl cryst. hydrate
[9] = 25 ± 2° C., 60 ± 5% RH, listed as HCl cryst. anhydrate
[10] = 40 ± 2° C., 75 ± 5% RH, listed as HCl cryst. anhydrate

SMILES: C=CC(=O)N1CCC(Oc2cc3c(Nc4ccc(Cl)c(Cl)c4F)ncnc3cc2OC)CC1 [Example 3, 1-(4-(4-(3,4-dichloro-2-fluorophenylamino)-7-methoxyquinazolin-6-yloxy)piperidin-1-yl)prop-2-en-1-one]
- hygroscopic degree (DVS) ([1]; relative humidity range of 0-90%, listed as crystalline anhydrous Form II): very low
- hygroscopic degree (DVS) [1, 6]: about 0.7%
- stability of the crystalline form on storage ([2]; long-term (25° C., 60% RH), accelerated (40° C., 75% RH) and harsh (60° C.) conditions): sufficiently stable

SMILES: C=CC(=O)N1CCC(Oc2cc3c(Nc4ccc(Cl)c(Cl)c4F)ncnc3cc2OC)CC1 [Example 4, 1-(4-(4-(3,4-dichloro-2-fluorophenylamino)-7-methoxyquinazolin-6-yloxy)piperidin-1-yl)prop-2-en-1-one]
- Purity (HPLC, %) 3 days [3, 7]: 99.2%
- Purity (HPLC, %) Start [3, 7]: 99.2%
- Purity (HPLC, %) Week 1 [3, 7]: 99.2%
- Purity (HPLC, %) Week 2 [3, 7]: 99.1%
- Purity (HPLC, %) Week 4 [3, 7]: 99.2%
- Purity (HPLC, %) 3 days [3, 8]: 99.3%
- Purity (HPLC, %) Start [3, 8]: 99.2%
- Purity (HPLC, %) Week 1 [3, 8]: 99.2%
- Purity (HPLC, %) Week 2 [3, 8]: 99.1%
- Purity (HPLC, %) Week 4 [3, 8]: 99.2%
- hygroscopic degree (DVS) [1, 6]: about 0.4%
- hygroscopic degree (DVS) ([1]; relative humidity range of 10-90%, 25° C., listed as crystalline monohydrochloride monohydrate (1HCl.1H2O) form): very low
- Solubility, pH 1.2 ([4]; listed as HCl cryst. hydrate): 5 μg/mL
- Solubility, pH 2.0 ([4]; listed as HCl cryst. hydrate): 7 μg/mL
- Solubility, pH 4.0 ([4]; listed as HCl cryst. hydrate): 48 μg/mL
- Solubility, Water ([4]; listed as HCl cryst. hydrate): <LOD

SMILES: C=CC(=O)N1CCC(Oc2cc3c(Nc4ccc(Cl)c(Cl)c4F)ncnc3cc2OC)CC1 [Example 5, 1-(4-(4-(3,4-dichloro-2-fluorophenylamino)-7-methoxyquinazolin-6-yloxy)piperidin-1-yl)prop-2-en-1-one]
- Purity (HPLC, %) 3 days [3, 9]: 99.4%
- Purity (HPLC, %) Start [3, 9]: 99.4%
- Purity (HPLC, %) Week 1 [3, 9]: 99.4%
- Purity (HPLC, %) Week 2 [3, 9]: 99.5%
- Purity (HPLC, %) Week 4 [3, 9]: 99.5%
- Purity (HPLC, %) 3 days [3, 10]: 99.4%
- Purity (HPLC, %) Start [3, 10]: 99.4%
- Purity (HPLC, %) Week 1 [3, 10]: 99.4%
- Purity (HPLC, %) Week 2 [3, 10]: 99.5%
- Purity (HPLC, %) Week 4 [3, 10]: 99.5%
- hygroscopic degree (DVS) [1, 6]: about 0.35%
- hygroscopic degree (DVS) ([1]; relative humidity range of 10-90%, 25° C., listed as crystalline anhydrous monohydrochloride (1HCl) form): very low
- moisture absorption on storage ([2]; 25° C., 60% relative humidity and 40° C., 75% relative humidity): did not absorb moisture
- Solubility, pH 1.2 ([4]; listed as HCl cryst. anhydrate): 92 μg/mL
- Solubility, pH 2.0 ([4]; listed as HCl cryst. anhydrate): 140 μg/mL
- Solubility, pH 4.0 ([4]; listed as HCl cryst. anhydrate): 74 μg/mL
- Solubility, Water ([4]; listed as HCl cryst. anhydrate): 20 µg/mL

Other lines, results leading:

- Solubility, pH 1.2 ([4]; listed as HCl amorphous): 274 μg/mL
- Solubility, pH 2.0 ([4]; listed as HCl amorphous): 213 μg/mL
- Solubility, pH 4.0 ([4]; listed as HCl amorphous): 34 μg/mL
- Solubility, Water ([4]; listed as HCl amorphous): 53 µg/mL
SMILES: C=CC(=O)N1CCC(Oc2cc3c(Nc4ccc(Cl)c(Cl)c4F)ncnc3cc2OC)CC1 [Example 6, 1-(4-(4-(3,4-dichloro-2-fluorophenylamino)-7-methoxyquinazolin-6-yloxy)piperidin-1-yl)prop-2-en-1-one]

- hygroscopic degree (DVS) [1, 6]: 1-3%
- solubility [5]: < 1 µg/mL
SMILES: C=CC(=O)N1CCC(Oc2cc3c(Nc4ccc(Cl)c(Cl)c4F)ncnc3cc2OC)CC1 [Reference Example, 1-(4-(4-(3,4-dichloro-2-fluorophenylamino)-7-methoxyquinazolin-6-yloxy)piperidin-1-yl)prop-2-en-1-one]
